This note sets out measurements from PubChem BioAssay (NCI).

The structures appear in SMILES notation.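 Method: 48-hour compound exposure of cells in 96-well plates, five concentrations, linear interpolation of endpoints. GI50 is the concentration that inhibits growth by half. The concentration for full growth arrest is given as TGI.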

What all share (experiment): NCI tumour cell line growth inhibition, 48 h
Test [1] relates to SF-295 CNS.
The test system of test [2] is 786-0 renal.
For test [3], the system named is NCI/ADR-RES ovarian.
Test [4] relates to NCI-H460 lung.
The test system of test [5] is COLO 205 colon.
The test system of test [6] is CAKI-1 renal.
In test [7] the test system is UO-31 renal.
Test [8] deals with IGROV1 ovarian.
Test [9] has as its system OVCAR-5 ovarian.
Test [10] concerns SR leukemia.

On to `CC(=O)NNC(=S)/N=C/c1c(O)cc(C)oc1=O`, for which the TGI in test [1], in test [2], in test [3], in test [4], in [5] and in test [6] was over 100 µM in each case. The TGI in test [7], in test [8] and in test [9] was over 100 µM throughout.
As to `CC1Cc2c(N)nc(N3CCOCC3)nc2NC1=O` (stereo not given), the TGI in test [1], in test [2], in test [4], in test [5], in test [7] and in [8] was over 100 µM each time.
As to `COc1cc2ccnc3c2c(c1OC)CC1CC(O)C(OC)CC31` (stereo not given), the TGI in test [1], in test [2], in test [4], in test [5], in test [7] and in [8] was over 100 µM each time. Besides, the TGI in test [9] and in test [10] was over 100 µM each time.
For the molecule `C[C@]12CC(C#N)C(=O)C(O)=C1CC[C@@H]1C2CC[C@@]2(C)C1CC[C@@H]2O` (stereo not given in full), the TGI in test [1] was over 100 µM; in [2], over 100 µM; in test [4], over 100 µM; in [5], over 100 µM; in [7], 87.3 µM; in [8], 63.7 µM. Further, the TGI in test [9] was over 100 µM.
As to `C[C@@H](NC1CCC[C@@H]1O)c1ccccc1` (stereo not given in full), the TGI in [1], in test [2], in [4], in test [5], in test [6] and in test [7] was over 100 µM throughout. Also, the TGI in test [8] and in [9] was over 100 µM throughout.
Turning to `Cc1[nH]c2ccccc2c1C1CC(=O)NC1=O` (stereo not given), the TGI in [1], in test [2], in test [4], in test [6], in test [7] and in test [8] was over 100 µM in each case. Further, the TGI in test [9] is over 100 µM.
`N#CC(C(=O)CCC(=O)Nc1ccc(Cl)cc1)c1ccccc1Cl` (stereo not given): the TGI in [1], in [2], in [4], in [5], in test [6] and in [7] was over 100 µM each time. Also, the TGI in [8] and in test [9] was over 100 µM throughout.
On to `O=C(O)CN(c1ccccc1)S(=O)(=O)c1ccc(Cl)cc1`, for which the TGI in test [2], in test [4], in test [5], in [6], in test [7] and in [8] was over 100 µM throughout. In [9], this molecule registered a TGI of over 100 µM.
For the molecule `C[Si](C)(C)/C=C\CCCN1C(=O)CCC1=O`, the TGI in test [1], in test [2], in test [4], in [5], in test [7] and in test [8] was over 100 µM each time. Besides, the TGI in [9] and in [10] was over 100 µM throughout.
Take `CN(C)CCNC1=CC(=O)c2c(O)ccc(O)c2C1=O`: the TGI in test [1] is 24.3 µM; in test [2] it was 15.4 µM; in [3], 7.78 µM; in test [4] it was 14.6 µM; in test [5], 3.63 µM; in test [6], 27.3 µM. Further, the TGI in [7] was determined as 17 µM; in test [8], 16.7 µM; in test [9], 27.5 µM.
On to `CC(=O)O[C@H]1CCC2[C@@H]3CCC4Nc5c(cnn5-c5ccccc5)C[C@]4(C)C3CC[C@@]21C` (stereo not given in full), for which the TGI in [1] is 10.7 µM; in test [2], 67.5 µM; in test [4], 42.1 µM; in [5], 28.9 µM; in [6] it was 20.7 µM; in test [7] it was 22.9 µM. Moreover, the TGI in test [8] is over 100 µM; in test [9], 60.1 µM.
For `O=C(Nc1ccc(Cl)cc1)c1cc2cc(F)ccc2cc1O`, the GI50 in test [1] was 2.47 µM; in test [2], 2.9 µM; in [3], 2.5 µM; in test [4], 0.882 µM; in [5], 2.35 µM; in test [6] it was 0.838 µM. For the same molecule, the figures for the GI50 in test [7], in [8] and in test [9] were 1.08 µM, 2.28 µM and 3.28 µM, respectively. The TGI in test [1] was 6.72 µM; in test [2], over 100 µM; in test [3], 8.05 µM; in test [4], over 100 µM; in test [5] it was 6.4 µM; in test [6], 8.96 µM. The TGI in test [7], in [8] and in test [9] was over 100 µM throughout.
With `c1ccc2c(c1)nnn2CNc1ccc(N2CCOCC2)cc1`, the TGI in test [1], in test [2], in test [4], in test [5], in test [7] and in test [8] was over 100 µM throughout. Further, the TGI in [10] is over 100 µM.
With `O=C1/C(=C/c2ccccc2Br)COc2ccc(O)c(O)c21`, the GI50 in test [1] was 2.96 µM; in test [2], 1.55 µM; in test [3] it was 1.88 µM; in test [4] it was 2.13 µM; in [5], 1.96 µM; in test [6], 1.31 µM. The GI50 in test [7] is 0.804 µM; in [8] it was 0.742 µM; in test [9], 2.15 µM. Also, the TGI in test [1] came to 8.04 µM; in test [2] it was 4.16 µM; in test [3] it was 11.6 µM; in test [4], 5.64 µM; in test [5], 3.95 µM; in [6], 2.74 µM. Further, the TGI in test [7] amounted to 2.07 µM; in test [8], 4.29 µM; in test [9] it was 4.39 µM.
Turning to `S=P(c1ccccc1)(c1ccccc1)C1(C2(P(=S)(c3ccccc3)c3ccccc3)CC2)CC1`, the TGI in test [1], in [2], in test [4], in test [5], in [7] and in test [8] was over 100 µM in each case. In addition, the TGI in test [9] and in test [10] was over 100 µM throughout.
Turning to `COc1cc2ccc(/C(C)=N/OC(C)=O)cc2cc1OC`, the TGI is over 100 µM in test [1]; over 100 µM in [2]; over 100 µM in [4]; over 100 µM in test [5]; 99.6 µM in [7]; over 100 µM in test [8]. The TGI in test [9] is over 100 µM.
For `COc1ccc(C(=O)C(Br)C(Br)C(=O)O)cc1` (stereo not given), the TGI in test [1] was over 100 µM; in [2], 97.6 µM; in test [3], over 100 µM; in test [4] it was over 100 µM; in test [5], 46.8 µM; in [6], over 100 µM. In addition, the TGI in test [8] and in [9] was over 100 µM throughout.
In the case of `NCCCn1c2c(c3cc4c(cc3c1=O)OCO4)C(=O)c1ccccc1-2`, the GI50 in test [1] is 0.483 µM; in test [2], 1.49 µM; in test [3], 0.7 µM; in test [4], 2.06 µM; in test [5], 3.61 µM; in test [6] it was 0.688 µM. Also, the TGI is 1.48 µM in test [1]; 2.88 µM in [2]; 2.11 µM in test [3]; 4.11 µM in test [4]; over 100 µM in test [5]; 2.22 µM in [6].
As for `COc1cc([C@@H]2c3cc4c(cc3[C@@H](NCc3ccc(C#N)cc3)C3COC(=O)[C@@H]32)OCO4)cc(OC)c1O` (stereo not given in full), the TGI in [1] is over 100 µM; in [2] it was 2.32 µM; in test [4], 1.77 µM; in test [5], 6.32 µM; in [6] it was 8.83 µM; in test [7], 4.34 µM. The TGI in test [8] worked out at 7.29 µM; in test [9], 8.71 µM.
In the case of `CCN(CC)C(=O)CNC(=O)OC(C)(C)C`, the TGI in test [1], in test [2], in [4], in test [6], in [7] and in test [8] was over 100 µM in each case. In addition, the TGI in test [9] was over 100 µM.
For the molecule `CC(Oc1ccc(OCC2CCCCC2)cc1)C(=O)O` (stereo not given), the TGI in test [1], in test [2], in test [4], in test [7] and in [8] was over 100 µM in each case.
As to `NCC1OC(n2cnc3c(=O)[nH]c(N)nc32)C(O)C1O` (stereo not given), the TGI in test [1], in test [2], in [3], in test [4], in test [5] and in [6] was over 100 µM each time. Further, the TGI in test [7], in [8] and in test [9] was over 100 µM in each case.
Regarding `CCCC1C(=O)C(CC)Cc2c(OC)ccc(OC)c21` (stereo not given), the TGI in test [1], in test [2], in [4], in test [5], in test [6] and in test [7] was over 100 µM throughout. Besides, the TGI in test [8] and in [9] was over 100 µM each time.
